The subject of test [1] is Heme. Description: Inhibition of heme crystallization by hemichrome inhibition of beta-hematin assay. It counts as functional.
For test [2], the system named is Plasmodium falciparum. Description: Antimicrobial activity against Plasmodium falciparum 3D7 by DAPI growth inhibition assay. It is filed as functional, organism-based.
The test system of test [3] is Heme. Description: Inhibition of heme crystallization by cell-free heme crystallization screen assay.

Molecules are shown by their SMILES.

As to `CCN(CC)Cc1cc(Nc2ccnc3cc(Cl)ccc23)ccc1O.Cl`, the IC50 in test [1] was found to be 1.45 equiv; in test [2], 0.0068 µM; in test [3], 67 µM.

Consider `CCN(CC)CCCC(C)Nc1ccnc2cc(Cl)ccc12` (configuration not stated) [CHLOROQUINE], for which the IC50 turned out to be 1.91 equiv in test [1] and 374 µM in test [3].

`OC(c1cc(C(F)(F)F)nc2c(C(F)(F)F)cccc12)C1CCCCN1` (configuration not stated) [MEFLOQUINE]: the figures for the IC50 in test [1] and in test [3] were 2.9 equiv and 476 µM, respectively.

The record behind these values is ChEMBL document CHEMBL1649447, “Colorimetric high-throughput screen for detection of heme crystallization inhibitors” (Antimicrob Agents Chemother, 2009).
